Reference: patent US9662404B2, “Compositions and methods for the delivery of molecules into live cells” (The Texas A&M University System, priority 2013, dated 2017)

Tests used:
[1] = test system: NIH 3T3 cells; test: HoxB4 and TAT-HoxB4 delivery, luciferase reporter under a HoxB4-inducible promoter; type: cell-based, murine
Experimental: Next, the delivery of the therapeutically important transcription factor HoxB4 was tested. HoxB4 can penetrate cells by itself or when fused to the […] TAT and activate transcription. […] NIH 3T3 cells were transfected with a vector containing the luciferase gene under a HoxB4-inducible promoter and with a β-galactosidase reporter as internal control. Cells were incubated with HoxB4 or TAT-HoxB4, in the absence or presence of dTAT for 1.5 h. Cells were then lysed and luciferase expression was assessed by measuring the luminescence of cell lysates normalized to β-galactosidase activity. […] These values are consistent with previously published reports. In contrast, addition of dTAT (3 μM), led to a luciferase induction of 53.1 and 307.4, respectively. The luciferase induction was therefore increased 24-fold in the presence of dTAT for HoxB4 and 61-fold for TAT-HoxB4. […] While increasing the transcriptional output of HoxB4 is valuable, high levels of HoxB4 expression can result in anti-proliferative and transforming effects. Precisely controlling the level and activity of HoxB4 inside cells is therefore important to achieve a desirable biological outcome. Because dTAT appears to act independently of the molecules used for co-incubation in our assays, it was hypothesized that it might be possible to titrate the amount of protein that penetrates cells by varying the protein concentration in the media while keeping dTAT concentration constant. Under this scenario, the efficiency of endosomal escape should remain unaffected but the amount of material released from endosomes should change.
The murine fibroblast cell line (NIH-3T3, stably transfected with the E2A-PBX vector), the luciferase reporter vector, pML (5×HOX/PBX; contains a promoter with binding sites for HOXB4 and PBX) and the β-gal internal control vector used in the following studies were kindly provided by P. Zandstra (University of Toronto, Ontario, Canada). The cells were initially cultured in 100 mm dishes at 37° C. with 5% CO2 in DMEM supplemented with 10% FBS. For experimental purposes, however, cells were seeded in 24-well plates at a density of 5-6×10^4 cells/well for 24 hours. Subsequently, cells were co-transfected with 0.8 μg/mL of pML (5×HOX/PBX) and of the β-gal internal control vector using Lipofectamine 2000. Twelve hours post-transfection, cells were washed and incubated with TAT-HoxB4 or HoxB4 (both at 200 nM, unless otherwise noted; see below) with or without TAT or dTAT in nrL-15 for 90 min. Some cells were also incubated with TAT-mCherry (200 nM) with and without the peptides. After incubation, all cells were washed with PBS and lysed according to the manufacturer's protocol for the reporter lysis buffer (RLB) (Promega). For titration experiments, the same protocol was followed, with the exception that HoxB4 concentrations were varied (25, 50, 100, 150 and 200 nM). In order to quantitate the luciferase reporter activity, 100 μL of luciferase assay reagent (Promega) was added to 20 μL of cell lysate and bioluminescence was immediately measured using a SpectraMaxL luminometer (Sunnyvale, Calif.). […] Absorbance was then measured at 450 nm using the plate reader. Since the absorption spectrum of the chromophore (TMR) conjugated to the peptide used in this study overlaps with that of β-gal, 20 μL of cell lysate containing the peptide was also diluted with 180 μL of the lysis buffer and absorbance values obtained at 450 nm were subtracted from that of the β-gal absorbance values. […]

[2] = test system: HeLa cells; test: dTAT-induced cytosolic release of DEAC-K9 trapped inside endosomes; type: cell-based
Experimental: (§1) FIGS. 8A-8C illustrate that dTAT mediates endosomal escape. (FIG. 8A) Effect of endocytic inhibitors on the cellular distribution of dTAT. HeLa cells were pre-treated with 50 μM amiloride or 200 nM bafilomycin for 30 and 20 min respectively, washed, and incubated with 5 μM dTAT and inhibitor. […] Scale bar, 10 μm. […] A schematic illustration of the experimental steps is shown (top). First, cells were incubated with 5 μM DEAC-K9 for 1 h and washed. Inverted monochrome images show a fluorescence punctuate distribution after incubation with DEAC-K9 alone. The same cells were then incubated with 5 μM dTAT for 1 h. Images show a redistribution of DEAC-K9 to the cytosol and nucleus (inhibited by bafilomycin). Scale bars, 10 μm. (FIG. 8C) The endosomolytic activity of dTAT is highly efficient. HeLa cells expressing SNAPH2B were incubated with 5 μM dTAT and 5 μM SNAP-Surface® 488. Fluorescence images show accumulation of SNAP-Surface® 488 in the nucleus. […] Small panels show cytosolic and nuclear fluorescence of TMR. Scale bars, 10 μm.
(§2) To test whether endosomal escape is involved in delivery of dTAT, the effects of amiloride, a macropinocytosis inhibitor, and bafilomycin, an inhibitor of endosomal acidification, were assessed. […] Cells were then washed and incubated with dTAT (FIG. 8B). […] This redistribution was however inhibited by bafilomycin.

[3] = test system: HeLa cells; test: Effect of endocytic inhibitors on cytosolic delivery of dTAT; type: cell-based; conditions: 50 μM amiloride or 200 nM bafilomycin pre-treatment, then 5 μM dTAT and inhibitor
Experimental: as §1, §2

[4] = test system: HeLa cells; test: Quantitative determination of peptide uptake inside cells (bulk fluorescence of cell lysates); type: cell-based; conditions: acTAT 5-25 μM (FIG. 23)
Experimental: HeLa cells were seeded in a 48 well dish, grown and washed as described above. For the peptide uptake experiment, each well was incubated for 1 h with varying concentration of acTAT, TAT or dTAT (range: 5-25 μM peptide concentration). For the titration experiment, cells were incubated with dTAT (5 μM) and varying concentrations of DEAC-K9 (range: 1-20 μM). Cells were then washed with PBS and nrL-15 and imaged. Multiple images for each condition were obtained and processed. To lyse cells, nrL-15 was removed from the wells and a total of 100 μL of HeLa cell lysis Buffer (50 mM Tris pH 7.5, 2 mM EDTA, 2 mM DTT, 0.1% Triton X-100) was incubated with cells for 5 min. The cells were lysed and scraped off the dish and pipetted into a 1.5 mL microcentrifuge tube. The cell lysates were centrifuged at 13.2K RPM for 25 min. […] The fluorescence from the cell lysates were measured using a plate reader equipped with a fluorescence module (Ex==525, Em=580-640 nm) (GloMax®-Multi+ Detection System, Promega, Fitchburg, Wis.). For the titration experiment, 80 μL of supernatant was diluted to a total volume of 100 μL and the bulk fluorescence was measured using a SLM-8000C fluorometer (Ex=435 nm, Em=465-475 nm) (SLM Instruments, Bath, UK). The fluorescence emission was averaged and recorded. […] The absorbance at 600 nm was measured using the plate reader. […]

[5] = test system: HeLa cells; test: Delivery of peptides inside live cells, internalization assessed by fluorescence microscopy; type: cell-based; conditions: 1 h incubation
Experimental: The TAT, dTAT and acTAT peptides were incubated for 1 h with several cell lines and internalization was assessed by fluorescence microscopy. […] See also FIG. 5. […] The cell lines HeLa, NIH 3T3, COLO 316 and HaCaT were incubated with 5 μM dTAT for 1 h, washed and imaged. […] After imaging, cells were incubated at 37° C. in a humidified atmosphere containing 5% CO2 for 24 h, washed and imaged again. […] Cell viability was assessed by exclusion of the cell-impermeable nuclear stain SYTOX® Blue at both 1 h and 24 h time point. […] Inverted monochrome (black=fluorescence signal, white-no signal) fluorescence images were made of HeLa cells incubated with 10 or 20 μM of TAT for 1 h.
Live cells from different lines (HeLa, HaCat, NIH 3T3) were grown in Dulbecco's […] (DMEM) (Fisher) supplemented with 10% fetal bovine serum (FBS) (Fisher) and kept at 37° C. in a humidified atmosphere containing 5% CO2. Cells were then seeded in 8-well dishes so that the cells were 80%-90% confluent after 48 h. […] The media (nrL-15) used for incubation lacks cysteine to avoid reduction of the disulfide bond of dTAT. Cells were then incubated with different concentrations of the acTAT, TAT, or dTAT at 37° C. for 1 h. […] Images were collected using a Rolera-MGI Plus back-illuminated EMCCD camera (Qimaging, Surrey, BC, Canada). Images were acquired using bright field imaging and three standard fluorescence filter sets: CFP (Ex=436±10 nm/Em=480±20 nm), RFP (Ex=560±20 nm/Em=630±35 nm), and FITC (Ex=488±10 nm/Em=520±20 nm). The fluorescence intensities of different cells were measured with the SlideBook 4.2 software (Olympus, Center Valley, Pa.) and the average fluorescence intensity was determined for each condition. It has been previously reported that CPPs labeled with fluorophores such as TMR can photosensitize membranes and cause endosomal leakage upon light irradiation. See, Srinivasan, D. et al., “Conjugation to the cell-penetrating peptide TAT potentiates the photodynamic effect of carboxytetramethylrhodamine,” PloS one 6:e17732 (2011) and Muthukrishnan, N., et al., “Synergy Between Cell-Penetrating Peptides and Singlet Oxygen Generators Leads to Efficient Photolysis of Membranes,” Photochemistry and Photobiology 89:625-630 (2012), each incorporated herein by reference in its entirety. […] First, all delivery experiments were performed under conditions of minimal light irradiation (dark room with dim red light). When fluorescence imaging is required, probes (e.g., SNAP surface 488, EGFP) are imaged before dTAT is, thereby minimizing the possible effect of light on endosomal release. For experiments performed with Cre and Hoxb4, cells are not imaged and not exposed to light (not at all for Hoxb4, 12 h after incubation for Cre).

[6] = test system: HeLa transfected with the pCALNL-GFP plasmid; type: cell-based
Experimental: The number of cells in the images was approximately the same as assessed by bright field microscopy (1,000 cells/experiment, experiments in triplicate, average and standard deviations represented). Scale bars, 100 μM.
To further confirm that functional proteins can penetrate cells upon incubation with dTAT, delivery of Cre recombinase was tested. In this assay, Cre induces recombination of a loxP-STOP-loxP sequence upstream of the egfp gene of a reporter plasmid.

Question: What does the source list for “HoxB4: transcription factor with therapeutic potential for in vitro expansion of hematopoietic stem cells”?
Answer: luciferase induction versus HoxB4 concentration ([1]; HoxB4 25-200 nM, dTAT 3 μM): responded linearly with the concentration of HoxB4 in the media; increase in luciferase activity over cells not treated with protein ([1]; protein 200 nM alone, 1.5 h): 2.2 fold; luciferase induction ([1]; protein 200 nM with dTAT 3 μM, 1.5 h): 53.1 fold; increase of luciferase induction in the presence of dTAT over protein alone ([1]; protein 200 nM, dTAT 3 μM): 24 fold

Question: With `CO/C1=C\C(C)=C\[C@@H](C)[C@@H](O)[C@@H](C)C/C(C)=C/C=C/[C@H](OC)[C@@H]([C@@H](C)[C@@H](O)[C@H](C)[C@@]2(O)C[C@@H](O)[C@H](C)[C@@H](C(C)C)O2)OC1=O` [bafilomycin, reference compound] as the compound, how does the “effect of bafilomycin on dTAT-induced DEAC-K9 redistribution” value [2] read?
Answer: Its value is “inhibited”.

Question: What about the “effect of inhibitor on cytosolic delivery of dTAT” value [3] of the same compound?
Answer: The value was “inhibited the cytosolic delivery of dTAT”.

Question: Which “effect of inhibitor on cytosolic delivery of dTAT” value [3] does the source give for `N=C(N)NC(=O)c1nc(Cl)c(N)nc1N` [amiloride] here?
Answer: Its value is “inhibited the cytosolic delivery of dTAT”.

Question: With C(S—CH2CONH2)K(ε-NH-TMR)TAT [acTAT] as the compound, how does the “endosomal escape when internalized amount is above the dTAT threshold level” value [4] read?
Answer: Its value is “does not achieve endosomal escape”.

Question: What about the “cellular localization of peptide fluorescence” value (shortened to “cellular localization”) ([5]; 1-20 μM) of the same compound?
Answer: The value was “punctate distribution”.

Question: With “CK(ε-NH-TMR)TAT ({Cys-K(TMR)}-RKKRRQRRRG-NH2) [monomer product: cysteine, TMR-modified lysine, TAT CPP domain … with C-terminal glycine amide]” as the compound, how does the “percentage of EGFP+ cells” value [6] read?
Answer: The value was 4.8%.

Question: And the “cellular localization” value ([5]; 20 μM)?
Answer: Its value is “many cells display cytosolic fluorescence”.

Question: What about the “cellular localization” value ([5]; up to 10 μM) of the same compound?
Answer: Its value is “localized inside endosomes”.
